“And” between values parts separate entries of the source, which are not always exact repeats. Equal values may be shown once.
Assays:
[1] = tested on: G1 (K+) monomeric HTelo G4 DNA; test: Emission titration with G1 (K+); assay type: binding, human; details: Table S2, unit not given, ligand 2 μM, 100 mM KCl, 10 mM Li cacodylate, pH 7.3, exc 440 nm, em 590 nm, triplicate
Protocol: (§1) Next, emission titrations were carried out with the emissive Pt^II compounds M2 and D3–8 and G4/duplex DNA to obtain association constants. Both Na^+ and K^+ stabilized monomeric and dimeric G4 DNA were investigated. Additionally, titrations were carried out with CT-DNA to evaluate the selectivity for G4 versus duplex DNA. Figure 5 summarizes the obtained results (see Figures S24–S37 and Table S2 for a full set of titration data). First discussed are the experiments conducted in Na^+ buffer, in which the G4 topology formed is antiparallel.[41] […] As discussed previously, this could potentially be caused by a “sandwiched” binding mode in which the metal-salphen complex sits between two G-quadruplex units. For dimeric metal-salphen complexes D3–8, however, there are several differences when compared to the CD melting studies. […] Upon increasing the linker length to a two-amino-acid sequence (RR and KK for compounds D4 and D5, respectively), larger Ka values were obtained with minimal change to the pattern of selectivity. […] Increasing the linker length to an eight-amino-acid sequence (RRRRRRRR) led to a similar stabilization of G2T6, while G1 stabilization increased.
(§2) G-Quadruplex oligonucleotides were purchased from Eurogentec (Belgium), and CT-DNA was purchased from Sigma-Aldrich. Stock solutions were prepared via dilution in the appropriate buffers to concentrations of 300–400 μM determined by UV–vis measurements in which increasing amounts of DNA were added to a cuvette and the absorbance at 260 nm recorded using an Agilent Cary UV 60 spectrometer. Prior to use, the DNA stock solutions were annealed by heating at 95 °C for 5 min and then cooling to room temperature overnight.
(§3) Experiments were carried out using a BMG Clariostar Microplate reader with Greiner Bio-One half-volume (100 μL/well) plates. Excitation was carried out at 440 nm and recorded from 500 to 700 nm in addition to a matrix scan at 590 nm. Titrations were carried out using G1, G2T1, and G2T6 (Na^+) G4 DNA (100 mM NaCl, 10 mM Li cacodylate, pH 7.3); G1, G2T1, and G2T6 (K^+) G4 DNA (100 mM KCl, 10 mM Li cacodylate, pH 7.3); and CT-DNA (100 mM KCl, 10 mM Li cacodylate, pH 7.3). Ligand concentration was kept constant at 2 μM, and the following DNA equivalents were tested: 0, 0.1, 0.2, 0.3, 0.4, 0.5, 0.75, 1, 1.5, 2, 3, and 5 (for CT-DNA 10× base pair equivalents were used, i.e., 1 to 50 BPE). Sample preparation was carried out by preparing stock solutions of double concentration ligand (4 μM) and DNA in the appropriate buffer, before 50 μL of each was added to the appropriate well and mixed. Experiments were conducted in triplicate and binding constants were obtained by curve fitting in Graphpad Prism 8 using eq 1.[46] [drawing 1] 1
(§4) Fluorescence response (y) was fitted against DNA concentration (x); R is the machine response, K is the association constant of ligand and DNA, L is the concentration of ligand, and n is the number of binding sites per DNA. The values of L and n were varied so that that the L was equal to the number of salphen units and n was equal to the number of G4 faces per DNA. The matrix scan results were used to plot the titration curves and 500–700 nm scan results were used to confirm that expected curve shapes and shifts were observed.

[2] = tested on: G2T1 (K+) dimeric HTelo G4 DNA; test: Emission titration with G2T1 (K+); assay type: binding, human; details: Table S2, unit not given, ligand 2 μM, 100 mM KCl, 10 mM Li cacodylate, pH 7.3, exc 440 nm, em 590 nm, triplicate
Protocol: as §1, §2, §3, §4

[3] = tested on: G2T6 (K+) dimeric HTelo G4 DNA; test: Emission titration with G2T6 (K+); assay type: binding, human; details: Table S2, unit not given, ligand 2 μM, 100 mM KCl, 10 mM Li cacodylate, pH 7.3, exc 440 nm, em 590 nm, triplicate
Protocol: as §1, §2, §3, §4

[4] = tested on: G1 (Na+) monomeric HTelo G4 DNA; test: Emission titration with G1 (Na+); assay type: binding, human; details: Table S2, unit not given, ligand 2 μM, 100 mM NaCl, 10 mM Li cacodylate, pH 7.3, exc 440 nm, em 590 nm, triplicate
Protocol: as §1, §2, §3, §4

[5] = tested on: G2T1 (Na+) dimeric HTelo G4 DNA; test: Emission titration with G2T1 (Na+); assay type: binding, human; details: Table S2, unit not given, ligand 2 μM, 100 mM NaCl, 10 mM Li cacodylate, pH 7.3, exc 440 nm, em 590 nm, triplicate
Protocol: as §1, §2, §3, §4

[6] = tested on: G2T6 (Na+) dimeric HTelo G4 DNA; test: Emission titration with G2T6 (Na+); assay type: binding, human; details: Table S2, unit not given, ligand 2 μM, 100 mM NaCl, 10 mM Li cacodylate, pH 7.3, exc 440 nm, em 590 nm, triplicate
Protocol: as §1, §2, §3, §4

[7] = Precipitation on addition to DNA solution (CD melting conditions); assay type: physicochemical; details: CD melting concentrations: dimeric salphen 6 μM, G1 6 μM or G2Tx 3 μM; 100 mM NaCl, 10 mM Li cacodylate, pH 7.3
Protocol: First, circular dichroism (CD) melting experiments were carried out with compounds D1–8 and their monomeric analogues M1–2 via the combination of DNA and compound in which the ratio of salphen units to G4 external tetrads was kept at a constant ratio of 2:1, i.e., [monomeric salphen] = 12 μM, [dimeric salphen] = 6 μM, [G1] = 6 μM, and [G2Tx] = 3 μM. The CD melting experiments were conducted solely with Na^+ stabilized DNA, which forms an antiparallel topology in solution (cf., in the presence of K^+ a mixture of topologies is observed). During the assay the temperature was increased from 25 to 95 °C upon which the intensity of signals with negative ellipticity at ca. 265 nm and positive ellipticity at ca. 295 (characteristic of an antiparallel G4 structure) decreased—see Figure 4a. This indicates the expected unfolding of the G4 DNA structure as the temperature increases. […] From these curves, the ΔTm values for the different sequences and compounds were determined, and the results are summarized in Figure 4c (see Supplementary Table 1 for values).
Experiments were carried out on a Jasco J-810 spectrophotometer using a 1 cm quartz cuvette. […] The signal at 295 nm was monitored as temperature was increased for 25 to 95 °C at a rate of 2 °C/min. […]

[8] = tested on: human osteosarcoma U2OS cells
Protocol: Cytotoxicity studies of compounds were carried out on a U-2 OS cell line (human osteosarcoma cells). These cells were grown on culture medium McCoy’s 5A Medium supplemented with 10% FBS (Fetal Bovine Serum) in an atmosphere of 95% air and 5% CO2 at 37 °C. Inhibition of cell growth induced by the tested compound was evaluated using a MTT assay. The cells were seeded in a sterile 96-well plate at a density of 15,000 cells per well and incubated for 24 h in growth medium. Afterward, the compound dissolved in H2O or DMSO was added to the cells maintaining the same proportion of solvent in each well. After 48 h of incubation in an atmosphere of 95% air and 5% CO2 at 37 °C, 10 μL of 5 mg/mL MTT prepared in PBS (0.136 M NaCl, 1.47 mM KH2PO4, 8 mM NaH2PO4, and 2.68 mM KCl) was added to each well, and the cell plate was incubated for another 4 h. […] Finally, absorbance of the cell plate was measured at a wavelength of 595 nm (Tecan M1000 infinite Pro). […] The absorbance measurement range was assessed between one value (average of triplicate points) containing 15,000 cells in McCoy’s 5A medium and in the absence of growth factors (which allows to determine the stable cell concentration) and another value (average of triplicate points) containing the usual growth medium (which allows to measure the maximum cell growth at 48 h). […]

[9] = tested on: G1 (DNA, G4) AGGGTTAGGGTTAGGGTTAGGG; test: CD melting at 295 nm; details: 100 mM NaCl, 10 mM Li cacodylate, pH 7.3, 6 μM DNA
[10] = tested on: G2T6 (DNA, G4) AGGGTTAGGGTTAGGGTTAGGGTTATTATTATTATTATTAGGGTTAGGGTTAGGGTTAGGG; test: CD melting at 295 nm; details: 100 mM NaCl; 10 mM Li cacodylate, pH 7.3; 6 μM compound (12 μM salphen units), 3 μM DNA
[11] = tested on: G1 (Na+) monomeric HTelo G4 DNA, AGGG(TTAGGG)3; test: CD melting with G1 (Na+); assay type: binding, human; details: CD melting at 295 nm, 25 to 95 °C at 2 °C/min; 100 mM NaCl, 10 mM Li cacodylate, pH 7.3; [G4 unit] 6 μM, [salphen unit] 12 μM
Protocol: (§5) Next, the DNA binding properties of the monomeric and dimeric compounds were studied. […] The following notation is used: […] The CD melting experiments were conducted solely with Na^+ stabilized DNA, which forms an antiparallel topology in solution (cf., in the presence of K^+ a mixture of topologies is observed). During the assay the temperature was increased from 25 to 95 °C upon which the intensity of signals with negative ellipticity at ca. 265 nm and positive ellipticity at ca. 295 (characteristic of an antiparallel G4 structure) decreased-see Figure 4a. This indicates the expected unfolding of the G4 DNA structure as the temperature increases. The changes in intensity were subsequently used to produce the corresponding melting curves (Figure 4b) for each sequence in the absence and presence of the different compounds under study. From these curves, the ΔTm values for the different sequences and compounds were determined, and the results are summarized in Figure 4c (see Supplementary Table 1 for values). […] G-Quadruplex oligonucleotides were purchased from Eurogentec (Belgium), and CT-DNA was purchased from Sigma-Aldrich. […] Prior to use, the DNA stock solutions were annealed by heating at 95 °C for 5 min and then cooling to room temperature overnight. Experiments were carried out on a Jasco J-810 spectrophotometer using a 1 cm quartz cuvette. Temperature was controlled using a Peltier module. The signal at 295 nm was monitored as temperature was increased for 25 to 95 °C at a rate of 2 °C/min. CD melting experiments were carried out with the appropriate G4 DNA (100 mM NaCl, 10 mM Li cacodylate, pH 7.3). Sample preparation was carried out by combining stock solutions of ligand and DNA in the appropriate buffer. […] Melting temperatures were obtained by curve fitting in Graphpad Prism 8. The data was normalized and fitted to a variable slope Hill equation, and the melting temperature was defined at the temperature at which y = 0.5.

[12] = tested on: G2T1 (Na+) dimeric HTelo G4 DNA, AGGG(TTAGGG)7; test: CD melting with G2T1 (Na+); assay type: binding, human; details: CD melting at 295 nm, 25 to 95 °C at 2 °C/min; 100 mM NaCl, 10 mM Li cacodylate, pH 7.3; [G4 unit] 6 μM (3 μM dimeric sequence), [salphen unit] 12 μM
Protocol: as §5

[13] = tested on: G2T6 (Na+) dimeric HTelo G4 DNA, AGGG(TTAGGG)3(TTA)5(TTAGGG)4; test: CD melting with G2T6 (Na+); assay type: binding, human; details: CD melting at 295 nm, 25 to 95 °C at 2 °C/min; 100 mM NaCl, 10 mM Li cacodylate, pH 7.3; [G4 unit] 6 μM (3 μM dimeric sequence), [salphen unit] 12 μM
Protocol: as §5

[14] = tested on: CT-DNA (duplex DNA); test: Emission titration with duplex DNA; assay type: binding
Protocol: Next, emission titrations were carried out with the emissive Pt^II compounds M2 and D3–8 and G4/duplex DNA to obtain association constants. Both Na^+ and K^+ stabilized monomeric and dimeric G4 DNA were investigated. Additionally, titrations were carried out with CT-DNA to evaluate the selectivity for G4 versus duplex DNA. Figure 5 summarizes the obtained results (see Figures S24–S37 and Table S2 for a full set of titration data). First discussed are the experiments conducted in Na^+ buffer, in which the G4 topology formed is antiparallel.[41] […] As discussed previously, this could potentially be caused by a “sandwiched” binding mode in which the metal-salphen complex sits between two G-quadruplex units. For dimeric metal-salphen complexes D3–8, however, there are several differences when compared to the CD melting studies. […] Upon increasing the linker length to a two-amino-acid sequence (RR and KK for compounds D4 and D5, respectively), larger Ka values were obtained with minimal change to the pattern of selectivity. […] Increasing the linker length to an eight-amino-acid sequence (RRRRRRRR) led to a similar stabilization of G2T6, while G1 stabilization increased. […]
G-Quadruplex oligonucleotides were purchased from Eurogentec (Belgium), and CT-DNA was purchased from Sigma-Aldrich. Stock solutions were prepared via dilution in the appropriate buffers to concentrations of 300–400 μM determined by UV–vis measurements in which increasing amounts of DNA were added to a cuvette and the absorbance at 260 nm recorded using an Agilent Cary UV 60 spectrometer. […]
Experiments were carried out using a BMG Clariostar Microplate reader with Greiner Bio-One half-volume (100 μL/well) plates. Excitation was carried out at 440 nm and recorded from 500 to 700 nm in addition to a matrix scan at 590 nm. […]
Fluorescence response (y) was fitted against DNA concentration (x); R is the machine response, K is the association constant of ligand and DNA, L is the concentration of ligand, and n is the number of binding sites per DNA. […]

Molecule	Association constant G1 (K+), mean [1]	Association constant G2T1 (K+), mean [2]	Association constant G2T6 (K+), mean [3]	Association constant G1 (Na+), mean [4]	Association constant G2T1 (Na+), mean [5]	Association constant G2T6 (Na+), mean [6]	further results
RRRRRRRR [Compound D8]	0.84	0.22	0.38	0.47	0.31	0.75	precipitation on addition to the DNA solution [7]: caused precipitation; IC50 [8]: 43 µM
C[N+](C)(C)CCOc1ccc(C=Nc2ccc(C(=O)NCc3cn(CC(=O)N[C@@H](CCCCN)C(=O)N[C@@H](CCCCN)C(=O)N[C@@H](Cn4cc(CNC(=O)c5ccc(N=Cc6ccc(OCC[N+](C)(C)C)cc6[O-])c(N=Cc6ccc(OCC[N+](C)(C)C)cc6[O-])c5)nn4)C(N)=O)nn3)cc2N=Cc2ccc(OCC[N+](C)(C)C)cc2[O-])c([O-])c1.[Pt+2].[Pt+2]							ΔTm ([9]; 6 μM compound (12 μM salphen units)): 5.5 °C
C[N+](C)(C)CCOc1ccc(C=Nc2ccc(C(=O)NCc3cn(CCOCCn4cc(CNC(=O)c5ccc(N=Cc6ccc(OCC[N+](C)(C)C)cc6[O-])c(N=Cc6ccc(OCC[N+](C)(C)C)cc6[O-])c5)nn4)nn3)cc2N=Cc2ccc(OCC[N+](C)(C)C)cc2[O-])c([O-])c1.[Pt+2].[Pt+2]							ΔTm ([9]; 6 μM compound, b22 states 1.1–1.5 °C for D1–4): 3.0 °C; ΔTm [10]: 6.4 °C
C[N+](C)(C)CCOc1ccc2c(c1)[O][Pt][O]c1cc(OCC[N+](C)(C)C)ccc1C=Nc1cc(C(=O)NCc3cn(CCOCCn4cc(CNC(=O)c5ccc6c(c5)N=Cc5ccc(OCC[N+](C)(C)C)cc5[O][Pt][O]c5cc(OCC[N+](C)(C)C)ccc5C=N6)nn4)nn3)ccc1N=C2 [Compound D3]	0.17	0.13	0.16	0.17	0.24	0.19	ΔTm G1 (Na+) [11]: 3.02 °C and 3.0 °C; ΔTm G2T1 (Na+) [12]: 15.29 °C; ΔTm G2T6 (Na+) [13]: 6.43 °C and 6.4 °C; Ka for duplex DNA ([14]; CT-DNA up to 50 base pair equivalents, 100 mM KCl, 10 mM Li cacodylate, pH 7.3, ligand 2 μM): 5.0 × 10^3 M^–1; fold reduction in duplex DNA binding ([14]; compared with monomeric complex M2): 10 fold
